Data: patent publication US9512120B2, “Microbicidally active imidazopyridine derivatives” (Syngenta Participations AG, priority 2013, dated 2016)

Experiments:
[1] = test system: Puccinia recondita f. sp. Tritici; test: Puccinia recondita f. sp. tritici / wheat / leaf disc preventative (brown rust); format: in vivo; conditions: foliar, wheat leaf segments cv Kanzler, inoculated 1 day after application, assessed 7-9 days after application, read-out: control of Puccinia recondita f. sp. Tritici (percent disease control compared to untreated)
Summary of the method: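 Preventative test: percent disease control relative to untreated leaf segments was assessed 7-9 days post-application. Wheat (cv Kanzler) leaf discs were treated at 200 ppm and spore-inoculated 1 day afterwards. Discs were held at 19° C and 75% relative humidity under a 12/12 h light cycle.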

Pyrenophora teres = Pyrenophora teres / barley / leaf disc preventative (net blotch); format: in vivo; conditions: foliar, barley leaf segments cv Hasso, inoculated two days after application, assessed 5-7 days after application, read-out: control of Pyrenophora teres (disease control compared to untreated)
Summary of the method: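 Preventative leaf-disc test: 200 ppm spray, then spore inoculation after two days on barley cv Hasso segments. Incubation 20 °C, 65% relative humidity, 12 h light/12 h dark; efficacy rated against untreated checks at 5-7 days post-application.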

[2] = test system: Botryotinia fuckeliana (Botrytis cinerea); test: Botryotinia fuckeliana (Botrytis cinerea) / liquid culture (gray mould); format: cell-based; conditions: Vogels broth, 24° C., 3-4 days after application, read-out: control of Botryotinia fuckeliana (inhibition of growth, photometric)
Summary of the method: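 Test compound was applied at 200 ppm in DMSO, then Vogels nutrient broth containing cryo-stored B. cinerea conidia was added. Photometric growth-inhibition reading followed after 3-4 days at 24 °C.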

[3] = test system: Glomerella lagenarium (Colletotrichum lagenarium); test: Glomerella lagenarium (Colletotrichum lagenarium) / liquid culture (anthracnose); format: cell-based; conditions: Colletotrichum orbiculare, PDB, 24° C., 3-4 days after application, read-out: control of Glomerella lagenarium (inhibition of growth, photometric)
Summary of the method: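 Test compound, delivered in DMSO at an application rate of 200 ppm, was combined with spore-containing PDB. Photometric growth-inhibition measurement followed 3-4 days of incubation at 24° C.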

[4] = test system: Mycosphaerella graminicola (Septoria tritici); test: Mycosphaerella graminicola (Septoria tritici) / liquid culture (Septoria blotch); format: cell-based; conditions: Zymoseptoria tritici, PDB, 24° C., 4-5 days after application, read-out: control of Mycosphaerella graminicola (inhibition of growth, photometric)
Summary of the method: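 Growth inhibition was read photometrically after 4–5 days at 24 °C. The test compound was applied at 200 ppm from DMSO solution, then PDB broth seeded with conidia taken straight from cryogenic storage was added.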

[5] = test system: Thanatephorus cucumeris (Rhizoctonia solani); test: Thanatephorus cucumeris (Rhizoctonia solani) / liquid culture (foot rot, damping-off); format: cell-based; conditions: PDB, 24° C., 3-4 days after application, read-out: control of Thanatephorus cucumeris (inhibition of growth, photometric)
Summary of the method: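 At 200 ppm, compounds in DMSO were combined with fresh liquid-culture mycelia in PDB and kept at 24° C; photometric measurement of growth inhibition after 3-4 days.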

Plasmopara viticola = Plasmopara viticola / grape / leaf disc preventative; format: in vivo; conditions: foliar, grape vine leaf disks, inoculated 1 day after application, assessed 6-8 days after application, read-out: control of Plasmopara viticola (percent disease control compared to untreated)
[6] = test system: Phaeosphaeria nodorum (Septoria nodorum); test: Phaeosphaeria nodorum (Septoria nodorum) / wheat / leaf disc preventative (glume blotch); format: in vivo; conditions: Parastagonospora nodorum, foliar, wheat leaf segments cv Kanzler, inoculated 2 days after application, assessed 5-7 days after application, read-out: control of Phaeosphaeria nodorum (percent disease control compared to untreated)
Experimental: Phaeosphaeria nodorum (Septoria nodorum)/Wheat/Leaf Disc Preventative (Glume Blotch): Wheat leaf segments cv Kanzler were placed on agar in a 24-well plate and sprayed with formulated test compound diluted in water at an application rate of 200 ppm. The leaf disks are inoculated with a spore suspension of the fungus 2 days after application. The inoculated test leaf disks are incubated at 20° C. and 75% relative humidity under a light regime of 12/12 h (light/dark) in a climate cabinet and the activity of a compound is assessed as percent disease control compared to untreated when an appropriate level of disease damage appears in untreated check leaf disks (5-7 days after application).

[7] = test system: Monographella nivalis (Microdochium nivale); test: Monographella nivalis (Microdochium nivale) / liquid culture (foot rot cereals); format: cell-based; conditions: PDB, 24° C., 4-5 days after application, read-out: control of Monographella nivalis (inhibition of growth, photometric)
Summary of the method: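 Cryostored conidia in potato dextrose broth were added to test compound dispensed from DMSO at 200 ppm. Plates were kept at 24° C, and growth inhibition was read photometrically 4-5 days after application.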

Sclerotinia sclerotiorum = Sclerotinia sclerotiorum liquid culture (cottony rot / white mold); format: cell-based; conditions: PDB, 24° C., 3-4 days after application, read-out: control of Sclerotinia sclerotiorum (inhibition of growth, photometric)
Experimental: Sclerotinia sclerotiorum (Cottony Rot/White Mold): Mycelia fragments of a newly grown liquid culture of the fungus were directly mixed into nutrient broth (PDB potato dextrose broth). After placing a (DMSO) solution of test compound into a microtiter plate (96-well format) the nutrient broth containing the fungal material was added. The test plates are incubated at 24° C. and the inhibition of growth was determined photometrically 3-4 days after application.

Gaeumannomyces graminis = Gaeumannomyces graminis / liquid culture (take-all of cereals); format: cell-based; conditions: PDB, 24° C., 4-5 days after application, read-out: control of Gaeumannomyces graminis (inhibition of growth, photometric)
Summary of the method: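 Growth inhibition, measured by photometry 4-5 days post-application at 24 °C, of fungal mycelial fragments in PDB broth. Test compound applied as DMSO solution at 200 ppm.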

[8] = test system: Mycosphaerella arachidis (Cercospora arachidicola); test: Mycosphaerella arachidis (Cercospora arachidicola) / liquid culture (early leaf spot); format: cell-based; conditions: PDB, 24° C., 4-5 days after application, read-out: control of Mycosphaerella arachidis (inhibition of growth, photometric)
Experimental: Mycosphaerella Arachidis (Cercospora arachidicola)/Liquid Culture (Early Leaf Spot): Conidia of the fungus from cryogenic storage were directly mixed into nutrient broth (PDB potato dextrose broth). After placing a DMSO solution of test compound into a 96-well microtiter plate at an application rate of 200 ppm, the nutrient broth containing the fungal spores was added. The test plates are incubated at 24° C. and the inhibition of growth was determined photometrically 4-5 days after application.

melting point [°C] | Structure (SMILES) | pest or weed control at 200 ppm [1] [%] | pest or weed control at 200 ppm (Pyrenophora teres) [%] | inhibition at 20 ppm [2] [%] | inhibition at 20 ppm [3] [%] | inhibition at 20 ppm [4] [%] | inhibition at 20 ppm [5] [%] | pest or weed control at 200 ppm (Plasmopara viticola) [%] | pest or weed control at 200 ppm [6] [%] | inhibition at 20 ppm [7] [%] | inhibition at 20 ppm (Sclerotinia sclerotiorum) [%] | inhibition at 20 ppm (Gaeumannomyces graminis) [%] | inhibition at 20 ppm [8] [%]
234 to 236 | CCn1c(-n2ncnc2N)nc2cncc(-c3ccc(C)cc3)c21 [Compound 28, 2-[1-ethyl-7-(4-methylphenyl)imidazo[4,5-c]pyridin-2-yl]-1,2,4-triazol-3-amine] | ≥ 80 | ≥ 80 | ≥ 80 | ≥ 80 | ≥ 80 | ≥ 80 | – | – | – | – | – | –
– | CCn1c(-n2ncnc2N)nc2cncc(C(C)=NOCc3ccccc3)c21 [Compound 165] | ≥ 80 | ≥ 80 | ≥ 80 | ≥ 80 | ≥ 80 | ≥ 80 | ≥ 80 | ≥ 80 | ≥ 80 | ≥ 80 | – | –
205 to 208 | CCn1c(-n2ncnc2N)nc2cncc(CCc3ccccc3)c21 [Compound 24, 2-[1-ethyl-7-(2-phenylethyl)imidazo[4,5-c]pyridin-2-yl]-1,2,4-triazol-3-amine] | ≥ 80 | ≥ 80 | ≥ 80 | ≥ 80 | ≥ 80 | ≥ 80 | – | – | ≥ 80 | – | ≥ 80 | –
– | CCCn1c(-n2ncnc2N)nc2cncc(-c3ccc(Cl)cc3Cl)c21 [Compound 118, 2-[7-(2,4-dichlorophenyl)-1-propylimidazo[4,5-c]pyridin-2-yl]-1,2,4-triazol-3-amine] | – | ≥ 80 | ≥ 80 | ≥ 80 | ≥ 80 | ≥ 80 | ≥ 80 | ≥ 80 | ≥ 80 | – | ≥ 80 | –
– | CCn1c(-n2ncnc2N)nc2cncc(C(C)=NOCc3c(Cl)cccc3Cl)c21 [Compound 160] | ≥ 80 | ≥ 80 | – | – | ≥ 80 | ≥ 80 | ≥ 80 | – | – | – | – | –
171 to 175 | CCn1c(-n2ncnc2N)nc2cncc(C(C)=NOC(C)(C)C)c21 [Compound 140] | ≥ 80 | ≥ 80 | ≥ 80 | ≥ 80 | ≥ 80 | ≥ 80 | – | – | – | – | ≥ 80 | ≥ 80
196 to 199 | Nc1nc(C2CC2)nn1-c1nc2cnccc2n1C1CCCCC1 [Compound 8, 2-(1-cyclohexylimidazo[4,5-c]pyridin-2-yl)-5-cyclopropyl-1,2,4-triazol-3-amine] | – | – | – | ≥ 80 | – | – | – | – | – | – | – | –
– | CCn1c(-n2ncnc2N)nc2cncc(/C(C)=N\OC(C)C)c21 [Compound 166] | ≥ 80 | ≥ 80 | ≥ 80 | ≥ 80 | ≥ 80 | ≥ 80 | ≥ 80 | – | – | – | – | –
– | CCn1c(-n2ncnc2N)nc2cncc(C(C)=NOCC(F)(F)F)c21 [Compound 169] | ≥ 80 | ≥ 80 | ≥ 80 | ≥ 80 | ≥ 80 | ≥ 80 | ≥ 80 | – | – | – | – | –
– | CCn1c(-n2ncnc2N)nc2cncc(C(C)=NOCc3ccccc3OC)c21 [Compound 146] | ≥ 80 | ≥ 80 | ≥ 80 | ≥ 80 | ≥ 80 | ≥ 80 | ≥ 80 | – | – | – | – | –
220 to 224 | CCn1c(-n2ncnc2N)nc2cncc(Cc3ccccc3)c21 [Compound 25, 2-(7-benzyl-1-ethylimidazo[4,5-c]pyridin-2-yl)-1,2,4-triazol-3-amine] | – | – | ≥ 80 | – | ≥ 80 | ≥ 80 | – | – | ≥ 80 | – | ≥ 80 | –
– | CCn1c(-n2ncnc2N)nc2cncc(/C(C)=N\OCC=C(C)C)c21 [Compound 156] | ≥ 80 | ≥ 80 | ≥ 80 | ≥ 80 | ≥ 80 | ≥ 80 | ≥ 80 | ≥ 80 | ≥ 80 | ≥ 80 | – | –
170 to 173 | CCn1c(-n2ncnc2N)nc2cncc(C(C)=NOC)c21 [Compound 133] | – | ≥ 80 | ≥ 80 | – | ≥ 80 | ≥ 80 | – | – | ≥ 80 | – | ≥ 80 | ≥ 80
234 to 236 | Nc1ncnn1-c1nc2cncc(Br)c2n1CC(F)(F)F [Compound 76, 2-[7-bromo-1-(2,2,2-trifluoroethyl)imidazo[4,5-c]pyridin-2-yl]-1,2,4-triazol-3-amine] | – | ≥ 80 | ≥ 80 | ≥ 80 | ≥ 80 | ≥ 80 | – | ≥ 80 | – | – | ≥ 80 | –
– | CCn1c(-n2ncnc2N)nc2cncc(-c3cccc4ccccc34)c21 [Compound 40, 2-(1-ethyl-7-naphthalen-1-ylimidazo[4,5-c]pyridin-2-yl)-1,2,4-triazol-3-amine] | – | ≥ 80 | – | – | ≥ 80 | ≥ 80 | ≥ 80 | – | – | – | – | –
217 to 221 | Nc1nc(Br)nn1-c1nc2cnccc2n1C1CCCCC1 [Compound 20, 5-bromo-2-(1-cyclohexylimidazo[4,5-c]pyridin-2-yl)-1,2,4-triazol-3-amine] | – | – | – | ≥ 80 | – | – | – | – | – | – | – | –
203 to 206 | Nc1nc(C(F)(F)F)nn1-c1nc2cnccc2n1C1CCCCC1 [Compound 3, 2-(1-cyclohexylimidazo[4,5-c]pyridin-2-yl)-5-(trifluoromethyl)-1,2,4-triazol-3-amine] | – | – | – | ≥ 80 | – | – | – | – | – | – | – | –
